Laboratory results: patent US11938129B2, “Methods and compositions for the treatment of vascular disease” (THE GENERAL HOSPITAL CORPORATION, priority 2018, dated 2024)
{FAM} = FAM fluorophore (/36-FAM/)

Experiments:
a-SMA and SM22a = assay: immunofluorescence of contractile proteins in ligated carotids; assay type: in vivo, mouse; settings: ligated carotid, in contrast to carotid VSMCs in wild type animals
Experimental: All mice used in this study were cared for under strict compliance with the Partners Institutional Animal Care and Use Committee (IACUC), regulated by the United States Public Health Service (USPHS). Carotid ligations were performed in 10 week old mice. Briefly, animals were anesthetized using intraperitoneal ketamine/xylazine (80 and 12 mg/kg, respectively) followed by a small incision in the neck to expose the carotid artery. Then the left carotid was ligated at the carotid bifurcation level using a 8-0 silk suture. At 21 days mice were sacrificed and carotids were collected for histological analysis. Approximately 98% of wild type mice developed stenotic lesions. Mice that developed thrombosis of the ligated carotid were excluded from the study (−1¬2%). Malatl knockout mice were kindly provided by Dr. David Spector (Cold Spring Harbor, N.Y.). Hdac9 flox/flox/Talgn-cre mice were generated as previously reported (10). Ezh2 fl/fl/ (STOCK Ezh2tm2Sho/J) and Myh11-cre-GFP (B6.Cg-Tg(Myh11-cre,-EGFP)2Mik/J) were crossed to generate smooth muscle cell-Ezh2 deficient mice. All above mice and wild-type mice (C57BL/6J) were purchased from Jackson laboratory. For tissue analysis, animals were euthanized through inhalational isoflurane (Sigma, St, Louis, Mo.) prior to tissue collection. All carotid ligation (left carotid) procedures were performed at 10 weeks of age. All experiments were performed on male and female animals at a 1:1 ratio.
Left and right carotids were cryosectioned using OCT standard protocol and sectioning. The right carotid artery was unligated and served as an internal control. Neoinitima analysis was performed from hematoxylin and eosin (H & E) stained horizontal cross-sections embedded in Optimal Cutting Temperature compound (OCT). Briefly, the distal 0.2 mm of carotid from the ligation suture site were discarded followed by generation of 20 slides (10 pM). Slides 1, 5, 10, and 15 were H&E stained for quantification of neointima. For quantification of the neointima, internal and external elastic lamina perimeters and medial thickness from 4 quadrants were measured and averaged using Image J software from the National Institutes of Health (NIH). Slides 2-4, 6-9, and 11-14 were used for immunofluorescence staining.
Cohorts of 10-week-old wild-type mice were treated with oral administration in drinking water of GSK343 24 hrs before left carotid ligation and following treatment for 3 weeks. GSK343 inhibitor (25 mg) was dissolved in 1 mL of DMSO to obtain a stock solution of 46 mM. Then, 250 ml of drinking water was supplemented with 250 pl of GSK343 stock solution. Control group for was given with equal volumes of sterile water. Bottles containing GSK343 were replaced with fresh water supplied with drug every 3 days. […]

[1] = delivery of fluorescently labeled GapmeR to the vasculature; assay type: in vivo, mouse; settings: ligated carotid of GapmeR treated mice, not in vehicle and GSK343 treated mice

3′-FAM-GapmeR-Malatl: fluorescently labeled GapmeR against MALAT1, GTCACAATGCATTCTA/36-FAM/ (SEQ ID NO: 2) (3' {FAM}, sugars by position and backbone not given here; LNA gapmer)
expression of α-SMA in carotid VSMCs (a-SMA and SM22a): robust expression
detection of 3′-FAM labeled GapmeR in ligated carotid [1]: Detection
